Experimental data from patent publication US20110077248A1, “IMIDAZOPYRIDINE AND RELATED ANALOGS AS SIRTUIN MODULATORS” (Sirtris Pharmaceuticals, Inc., priority 2008, published 2011).

Target: T1, SIRT1 (Homo sapiens, UniProt Q96EB6)
T1 construct: His-tag (N); made in house; host or cells: E. coli BL21(DE3), T7-promoter vector
T1 sequence (Q96EB6 1-747): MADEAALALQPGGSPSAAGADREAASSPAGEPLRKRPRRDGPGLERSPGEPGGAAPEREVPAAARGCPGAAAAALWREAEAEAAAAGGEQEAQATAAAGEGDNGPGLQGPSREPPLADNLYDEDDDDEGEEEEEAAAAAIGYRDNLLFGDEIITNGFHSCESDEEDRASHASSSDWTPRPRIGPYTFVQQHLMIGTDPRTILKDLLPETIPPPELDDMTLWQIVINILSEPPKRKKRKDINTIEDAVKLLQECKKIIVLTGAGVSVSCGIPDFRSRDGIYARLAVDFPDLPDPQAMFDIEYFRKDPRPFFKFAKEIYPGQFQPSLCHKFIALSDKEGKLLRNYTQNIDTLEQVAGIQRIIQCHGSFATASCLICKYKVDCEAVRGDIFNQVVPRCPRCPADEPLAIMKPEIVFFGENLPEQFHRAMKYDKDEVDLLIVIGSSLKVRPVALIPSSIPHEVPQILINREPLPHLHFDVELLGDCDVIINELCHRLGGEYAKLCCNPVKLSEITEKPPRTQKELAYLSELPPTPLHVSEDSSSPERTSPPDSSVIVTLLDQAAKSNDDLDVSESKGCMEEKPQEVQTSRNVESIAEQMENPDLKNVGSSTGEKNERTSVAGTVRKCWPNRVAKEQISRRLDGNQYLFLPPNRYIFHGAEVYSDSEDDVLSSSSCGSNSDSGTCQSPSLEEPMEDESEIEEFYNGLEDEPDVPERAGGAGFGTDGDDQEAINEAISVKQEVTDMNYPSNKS
Test: Mass spectrometry based assay for modulators of SIRT1 activity (deacetylation of p53-based acetylated peptide)
Format: biochemical
Conditions: for EC1.5: concentration of test compound that results in 150% activation of SIRT1, 0.5 μM peptide substrate, 120 μM βNAD+, 10 nM SIRT1, 25 min, 25° C.; for Emax: percent maximum fold activation of SIRT1
Excerpt: A mass spectrometry based assay was used to identify modulators of SIRT1 activity. The mass spectrometry based assay utilizes a peptide having 20 amino acid residues as follows: Ac-EE-K(biotin)-GQSTSSHSK(Ac)NleSTEG-K(5TMRi)-EE-NH2 (SEQ ID NO: 1) wherein K(Ac) is an acetylated lysine residue and Nle is a norleucine. The peptide is labeled with the fluorophore 5TMR (excitation 540 nm/emission 580 nm) at the C-terminus. The sequence of the peptide substrate is based on p53 with several modifications. In addition, the methionine residue naturally present in the sequence was replaced with the norleucine because the methionine may be susceptible to oxidation during synthesis and purification.
The mass spectrometry assay is conducted as follows: 0.5 μM peptide substrate and 120 μM βNAD+ is incubated with 10 nM SIRT1 for 25 minutes at 25° C. in a reaction buffer (50 mM Tris-acetate pH 8, 137 mM NaCl, 2.7 mM KCl, 1 mM MgCl2, 5 mM DTT, 0.05% BSA). Test compounds may be added to the reaction as described above. The SirT1 gene is cloned into a T7-promoter containing vector and transformed into BL21(DE3). After the 25 minute incubation with SIRT1, 10 μL of 10% formic acid is added to stop the reaction. Reactions are sealed and frozen for later mass spec analysis. Determination of the mass of the substrate peptide allows for precise determination of the degree of acetylation (i.e. starting material) as compared to deacetylated peptide (product).
A control for inhibition of sirtuin activity is conducted by adding 1 μL of 500 mM nicotinamide as a negative control at the start of the reaction (e.g., permits determination of maximum sirtuin inhibition). A control for activation of sirtuin activity is conducted using 10 nM of sirtuin protein, with 1 μL of DMSO in place of compound, to determinine the amount of deacetylation of the substrate at a given timepoint within the linear range of the assay. This timepoint is the same as that used for test compounds and, within the linear range, the endpoint represents a change in velocity.
For the above assay, SIRT1 protein was expressed and purified as follows. The SirT1 gene was cloned into a T7-promoter containing vector and transformed into BL21(DE3). The protein was expressed by induction with 1 mM IPTG as an N-terminal His-tag fusion protein at 18° C. overnight and harvested at 30,000×g. Cells were lysed with lysozyme in lysis buffer (50 mM Tris-HCl, 2 mM Tris[2-carboxyethyl]phosphine (TCEP), 10 μM ZnCl2, 200 mM NaCl) and further treated with sonication for 10 min for complete lysis. The protein was purified over a Ni-NTA column (Amersham) and fractions containing pure protein were pooled, concentrated and run over a sizing column (Sephadex S200 26/60 global). The peak containing soluble protein was collected and run on an Ion-exchange column (MonoQ). Gradient elution (200 mM-500 mM NaCl) yielded pure protein. This protein was concentrated and dialyzed against dialysis buffer (20 mM Tris-HCl, 2 mM TCEP) overnight. The protein was aliquoted and frozen at −80° C. until further use.
Sirtuin modulating compounds that activated SIRT1 were identified using the assay described above and are shown below in Table 1. The EC1.5 values represent the concentration of test compounds that result in 150% activation of SIRT1. The EC1.5 values for the activating compounds are represented by A (EC1.5<1.0 uM), B (EC1.5 1-25 uM), C (EC1.5>25 uM). The percent maximum fold activation is represented by A (Fold activation >200%) or B (Fold Activation <200%). “NT” indicates the compound was not tested in a particular assay.

| EC1.5 | Emax [%] | Compound |
| --- | --- | --- |
| B (EC1.5 1-25 uM) | < 200 | O=C(Nc1cccn2cc(-c3ccccc3)nc12)c1cscn1 [Compound 101] |
| C (EC1.5>25 uM) | < 200 | O=C(Nc1cccn2cc(-c3ccccc3)nc12)c1cnccn1 [Compound 102] |
| C (EC1.5>25 uM) | < 200 | O=C(Nc1cccn2cc(-c3ccccc3)nc12)C1CCNCC1 [Compound 103] |
| B (EC1.5 1-25 uM) | < 200 | O=C(Nc1nccs1)c1cccn2cc(-c3ccccc3)nc12 [Compound 106] |
| B (EC1.5 1-25 uM) | > 200 | Cc1csc(NC(=O)c2cccn3cc(-c4ccccc4)nc23)n1 [Compound 107] |
| C (EC1.5>25 uM) | < 200 | O=C(Nc1ccccc1)c1cccn2cc(-c3ccccc3)nc12 [Compound 108] |
| B (EC1.5 1-25 uM) | < 200 | O=C(Nc1cnccn1)c1cccn2cc(-c3ccccc3)nc12 [Compound 109] |
| C (EC1.5>25 uM) | < 200 | O=C(NC1CCCC1)c1cccn2cc(-c3ccccc3)nc12 [Compound 110] |
| C (EC1.5>25 uM) | < 200 | O=C(Nc1ccccc1)c1cccn2cc(-c3cccc(C(F)(F)F)c3)nc12 [Compound 113, N-phenyl-2-(3-(trifluoromethyl)phenyl)imidazo[1,2-a]pyridine-8-carboxamide] |
| C (EC1.5>25 uM) | < 200 | O=C(Nc1ccccc1)c1cccn2cc(-c3cccc(OC(F)(F)F)c3)nc12 [Compound 116] |
| B (EC1.5 1-25 uM) | < 200 | O=C(Nc1cnccn1)c1cccn2cc(-c3cccc(C(F)(F)F)c3)nc12 [Compound 118] |
| C (EC1.5>25 uM) | < 200 | O=C(Nc1cccn2cc(-c3cccc(-c4ccccc4)c3)nc12)c1cscn1 [Compound 121] |

Continued, molecule first:

| Compound | EC1.5 | Emax [%] |
| --- | --- | --- |
| O=C(Nc1nccs1)c1cccn2nc(-c3ccc(OCC(O)CO)cc3C(F)F)nc12 (stereo in doubt) [Compound 249, (R)-2-(2-(difluoromethyl)-4-(2,3-dihydroxypropoxy)phenyl)-N-(thiazol-2-yl)-[1,2,4]triazolo[1,5-a]pyridine-8-carboxamide] | C (EC1.5>25 uM) | < 200 |
| O=C(Nc1cccn2cc(-c3cccc(OC(F)(F)F)c3)nc12)c1cscn1 [Compound 104] | C (EC1.5>25 uM) | < 200 |
| O=C(Nc1cccn2cc(-c3cccc(OC(F)(F)F)c3)nc12)c1cnccn1 [Compound 105] | C (EC1.5>25 uM) | < 200 |
| O=C(Nc1cccn2cc(-c3cccc(C(F)(F)F)c3)nc12)c1cnccn1 [Compound 111] | B (EC1.5 1-25 uM) | < 200 |
| O=C(Nc1nccs1)c1cccn2cc(-c3cccc(C(F)(F)F)c3)nc12 [Compound 112] | C (EC1.5>25 uM) | < 200 |
| O=C(NC1CCCC1)c1cccn2cc(-c3cccc(OC(F)(F)F)c3)nc12 [Compound 114] | C (EC1.5>25 uM) | < 200 |
| O=C(Nc1nccs1)c1cccn2cc(-c3cccc(OC(F)(F)F)c3)nc12 [Compound 115, N-(thiazol-2-yl)-2-(3-(trifluoromethoxy)phenyl)imidazo[1,2-a]pyridine-8-carboxamide] | B (EC1.5 1-25 uM) | < 200 |
| O=C(Nc1cccn2cc(-c3cccc(C(F)(F)F)c3)nc12)c1cscn1 [Compound 117] | B (EC1.5 1-25 uM) | < 200 |
| O=C(Nc1cccn2cc(-c3cccc(C(F)(F)F)c3)nc12)c1ccncc1 [Compound 119] | C (EC1.5>25 uM) | < 200 |
| O=C(Nc1cccn2cc(-c3cccc(C(F)(F)F)c3)nc12)c1cccnc1 [Compound 120] | C (EC1.5>25 uM) | < 200 |
| O=C(Nc1cccn2cc(-c3cccc(C(F)(F)F)c3)nc12)c1ncccn1 [Compound 122, N-(2-(3-(trifluoromethyl)phenyl)imidazo[1,2-a]pyridin-8-yl)pyrimidine-2-carboxamide] | B (EC1.5 1-25 uM) | > 200 |
